Experimental data as given in patent US11753445B2, “Therapeutic peptides” (COHBAR, INC., priority 2016, dated 2023).
Ends that are not written are not given here.

Assays:
[1] = test system: Diet Induced Obese (DIO) mice; experiment: Body weight and fat mass in Diet Induced Obese mice, 21-day study (Example 7); assay type: in vivo, Male C57BL/6 mice; conditions: male DIO mice, Mean (SD)
Protocol: Male C57BL/6 mice were maintained on a high fat diet for 12 to 22 weeks to develop diet induced obesity. Animals were randomized to treatment groups based on blood glucose levels and body weight. The peptides (SEQ ID No: 208 and SEQ ID NO: 210) were each administered to a group of male DIO mice twice daily by appropriate routes at a dose of 15 mg/kg/dose for 21 days (N=8 to 12 animals per treatment group). […] Metabolic parameters including body weight, blood glucose levels and food intake were monitored. Body mass distribution (fat vs lean) was determined where appropriate by quantitative whole body NMR prior to dosing and at the end of dosing.

3T3-L1 Adipocytes [2] = experiment: Free fatty acid levels in cultured mouse 3T3-L1 adipocytes, isoproterenol stimulated (Example 2); assay type: cell-based; conditions: test peptides 25 μM; isoproterenol 1 nM
How it was run: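 Release of free fatty acids, read at 540 nm, was stimulated with 1 nM isoproterenol for 3 h in mouse 3T3-L1 adipocytes (12–17 days of differentiation). Cells were pre-exposed to 25 μM peptide for 18–20 h plus 1 h, with peptide kept in during stimulation. Values are background-subtracted and normalised to isoproterenol alone.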

[3] = test system: Diet Induced Obese (DIO) mice; experiment: Body weight and fat mass in Diet Induced Obese mice, 10 days (Example 20); assay type: in vivo, Male C57BL/6 mice; conditions: male DIO mice, N = 8, Mean (SEM)
Protocol: Male C57BL/6 mice were maintained on a high fat diet for 18 weeks to develop diet induced obesity. Animals were randomized to treatment groups based on blood glucose levels and body weight. The peptides of the invention were administered to two groups of male DIG mice once or twice daily by intraperitoneal or subcutaneous injection at a doses of 5 to 15 mg/kg/dose for 10 days (N=8 animals per treatment group). An additional group of male DIG mice (n=8) received vehicle (water or saline) alone. Body weight, blood glucose levels and food intake were monitored. Body mass distribution (fat vs lean) was determined by quantitative whole body NMR prior to dosing and at the end of dosing. Administration of the peptides of the invention produced body weight loss and/or decrease in fat mass from baseline values (Table 18).

[4] = Stability in mouse plasma, peptides 10 uM (Example 15); assay type: in vitro ADME; conditions: mouse plasma 37° C., peptide 10 uM
Protocol: (§1) Peptides (10 uM) were incubated in pooled mouse plasma at 37° C. and samples were removed and immediately analyzed for the concentration of intact peptide by LC/MS/MS over the course of 3 hours. The percent of peptide remaining in plasma at each time point was calculated relative to the initial peak area (Table 13).

3T3-L1 Adipocytes [5] = experiment: Free fatty acid levels in cultured mouse 3T3-L1 adipocytes, isoproterenol stimulated (Example 17); assay type: cell-based; conditions: Peptide Concentration 25 μM; isoproterenol 1 nM
Protocol: Mouse 3T3-L1 cells were seeded at a density between 1,000-20,000 cells per well on 96-well, 48-well, or 24-well plates in Pre-adipocyte Medium (Zen-Bio, Durham, N.C.) and grown to confluence at 37° C. in a humidified atmosphere of 5% CO2/95% air. Two days after confluence, cells were placed in Adipocyte Differentiation Medium (Zen-Bio, Durham, N.C.) and cultured for three additional days at 37° C. in a humidified atmosphere of 5% CO2/95% air. The culture media was then replaced with Adipocyte Maintenance Medium (Zen-Bio) and the cells were maintained for an additional 9-14 days at 37° C. in a humidified atmosphere of 5% CO2/95% air with partial medium replacement every other day. Following 12-17 days of differentiation, test peptides were added at a final concentration of 25-50 μM and incubated for 18-20 hours in Adipocyte Maintenance Medium at 37° C. in a humidified atmosphere of 5% CO2/95%. After the media incubation, media was removed and exchanged with Assay Buffer (Zen-Bio) containing isoproterenol (1 nM) (added to all samples except untreated controls) and the test peptides. Cells were incubated for a further 3 hours at 37° C. in a humidified atmosphere of 5% CO2/95%. Free fatty acid concentrations in the media were determined using a Free Fatty Acid Assay Kit (Zen-Bio) according to the manufacturer's instructions using a plate reader (540 nm).
Absorbance values were corrected for untreated background and expressed relative to isoproterenol treated cells. Treatment with isoproterenol (1 nM) alone was used as the free fatty acid level stimulatory control. The relative standard deviation of the isoproterenol control was <10%. […] Free fatty acid levels for insulin (100 nM) treatment were <5% of the isoproterenol control value.

Human Primary Adipocytes [6] = experiment: Free fatty acid levels in cultured human primary adipocytes, isoproterenol stimulated (Example 4); assay type: cell-based; conditions: test peptides 25 μM; isoproterenol 1 nM
Protocol: Human primary adipocytes were seeded at 5,000-100,000 cells per well on 96-well, 48-well, or 24-well plates in Pre-adipocyte Medium (Zen-Bio, Durham, N.C.) and grown to confluence at 37° C. in a humidified atmosphere of 5% CO2/95% air. Two days after confluence, cells were placed in Adipocyte Differentiation Medium (Zen-Bio, Durham, N.C.) and cultured for three additional days at 37° C. in a humidified atmosphere of 5% CO2/95% air. The culture media was then replaced with Adipocyte Maintenance Medium (Zen-Bio) and the cells were maintained for an additional 11-21 days at 37° C. in a humidified atmosphere of 5% CO2/95% air with partial medium replacement every other day. Following 14-24 days of differentiation, test peptides were added at a final concentration of 25 μM and incubated for 18-20 hours in Adipocyte Maintenance Medium at 37° C. in a humidified atmosphere of 5% CO2/95%. After 18-20 hours, the media was exchanged with fresh Adipocyte Maintenance Medium containing test peptides and incubated for 1 h at 37° C. in a humidified atmosphere of 5% CO2/95%. After 1 h media was exchanged with Assay Buffer (Zen-Bio) containing isoproterenol (1 nM) (added to all samples except untreated controls) and test peptides. Cells were incubated for a further 3 hours at 37° C. in a humidified atmosphere of 5% CO2/95%. Free fatty acid concentrations in the media were determined using a Free Fatty Acid Assay Kit (Zen-Bio) according to the manufacturer's instructions using a plate reader (540 nm). Absorbance values were corrected for untreated background and expressed relative to isoproterenol treated cells. Treatment with isoproterenol (1 nM) alone was used as the free fatty acid level stimulatory control. The relative standard deviation of the isoproterenol control was <14%. […] Free fatty acid levels for insulin (100 nM) treatment were <5% of the isoproterenol control value.

3T3-L1 Adipocytes [7] = experiment: Free fatty acid levels in cultured mouse 3T3-L1 adipocytes, forskolin stimulated (Example 3); assay type: cell-based; conditions: test peptides 25 μM; forskolin 1 μM
How it was run: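 Mouse 3T3-L1 cells differentiated 12–17 days, then exposed to test peptides (25 μM) for 18–20 h, fresh peptide 1 h, then 3 h with 1 μM forskolin. Free fatty acids in medium read colorimetrically at 540 nm. Values background-corrected and expressed relative to forskolin-only cells.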

Human Primary Adipocytes [8] = experiment: Free fatty acid levels in cultured human primary adipocytes, forskolin stimulated (Example 5); assay type: cell-based; conditions: test peptides 25 μM; forskolin 1 μM
How it was run: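 Differentiated human primary adipocytes (14–24 days) were exposed to peptides at 25 μM for 18–20 h and 1 h, then stimulated with 1 μM forskolin plus peptide for 3 h at 37 °C. Medium free fatty acids were measured colorimetrically (540 nm), background-corrected and expressed relative to forskolin-only cells.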

[9] = Stability in mouse plasma, peptides 100 uM (Example 14); assay type: in vitro ADME; conditions: mouse plasma 37° C., peptide 100 uM; for remaining at 0.25 h, 100 uM / remaining at 0.5 h, 100 uM / remaining at 1 h, 100 uM / remaining at 2 h, 100 uM / remaining at 3 h, 100 uM: pooled mouse plasma; for remaining at 0.25 h, 100 uM: 15 min, read-out: % Remaining at Each Time Point: 15 min; for remaining at 0.5 h, 100 uM: 30 min, read-out: % Remaining at Each Time Point: 30 min; for remaining at 1 h, 100 uM: 60 min, read-out: % Remaining at Each Time Point: 60 min; for remaining at 2 h, 100 uM: 120 min, read-out: % Remaining at Each Time Point: 120 min; for remaining at 3 h, 100 uM: 180 min, read-out: % Remaining at Each Time Point: 180 min
Protocol: as §1, with “(100” for “(10”, “12).” for “13).”

[10] = 10 days twice daily intraperitoneal 15 mg/kg
[11] = 10 days once daily administration 15 mg/kg

H-MRWQEMGYIFYPRKLR-OH [SEQ ID NO: 2, reference compound]
Decrease from Baseline in Body Weight (%) ([1]; 21 days twice daily IP 15 mg/kg/dose): −9.3 (5.0) %

H-RWQEMNYIFYP-OH [compound 283]
Free Fatty Acid Levels in 3T3-L1 Adipocytes Expressed as a Percent of Isoproterenol Control: Percent of Control Value (3T3-L1 Adipocytes [2]): 90.8%
Decrease from Baseline in Body Weight (%) [3, 10]: −5.5 (0.4) %
Decrease from Baseline in Fat Mass (g) [3, 10]: −3.0 (0.2) g
% Remaining at Each Time Point: 0 min ([4]; 0 min): 100%
remaining at 0.25 h, 10 uM ([4]; pooled mouse plasma, 15 min, read-out: % Remaining at Each Time Point: 15 min): 54.3%
remaining at 0.5 h, 10 uM ([4]; pooled mouse plasma, 30 min, read-out: % Remaining at Each Time Point: 30 min): 25.8%
remaining at 1 h, 10 uM ([4]; pooled mouse plasma, 60 min, read-out: % Remaining at Each Time Point: 60 min): 2.05%
remaining at 2 h, 10 uM ([4]; pooled mouse plasma, 120 min, read-out: % Remaining at Each Time Point: 120 min): 0.35%
remaining at 3 h, 10 uM ([4]; pooled mouse plasma, 180 min, read-out: % Remaining at Each Time Point: 180 min): 0.14%

H-NYIFYPR-OH [compound 361]
Free Fatty Acid Levels in 3T3-L1 Adipocytes Expressed as a Percent of Isoproterenol Control: Percent of Control Value (3T3-L1 Adipocytes [5]): 76.3%
Decrease from Baseline in Body Weight (%) [3, 10]: −5.8 (0.8) %
Decrease from Baseline in Fat Mass (g) [3, 10]: −3.8 (0.5) g

357 (PEG600-KRWQEMNYIFYPR) [compound 357]
Free Fatty Acid Levels in 3T3-L1 Adipocytes Expressed as a Percent of Isoproterenol Control: Percent of Control Value (3T3-L1 Adipocytes [5]): 30.8%
Decrease from Baseline in Body Weight (%) [3, 11]: −1.2 (0.6) %
Decrease from Baseline in Fat Mass (g) [3, 11]: −0.2 (0.2) g
Decrease from Baseline in Body Weight (%) [3, 10]: −3.4 (1.0) %
Decrease from Baseline in Fat Mass (g) [3, 10]: −1.0 (0.4) g

CCc1ccc(CCOc2ccc(CC3SC(=O)NC3=O)cc2)nc1 (stereo not drawn) [Pioglitazone, pioglitazone, reference compound]
Decrease from Baseline in Body Weight (%) ([1]; 21 days twice daily PO 15 mg/kg/dose): 1.0 (3.1) %

H-MRWQEMQYIFYPR-OH [compound 209]
Free Fatty Acid Levels in Human Primary Adipocytes Expressed as a Percent of Isoproterenol Control: Percent of Control Value (Human Primary Adipocytes [6]): 66.8%
Free Fatty Acid Levels in 3T3-L1 Adipocytes Expressed as a Percent of Forskolin Control: Percent of Control Value (3T3-L1 Adipocytes [7]): 33.3%
Free Fatty Acid Levels in 3T3-L1 Adipocytes Expressed as a Percent of Isoproterenol Control: Percent of Control Value (3T3-L1 Adipocytes [2]): 30.1%
Free Fatty Acid Levels in Human Primary Adipocytes Expressed as a Percent of Forskolin Control: Percent of Control Value (Human Primary Adipocytes [8]): 90.1%
% Remaining at Each Time Point: 0 min [9]: 100%
remaining at 0.25 h, 100 uM [9]: 47.5%
remaining at 0.5 h, 100 uM [9]: 38.9%
remaining at 1 h, 100 uM [9]: 38%
remaining at 2 h, 100 uM [9]: 36.3%
remaining at 3 h, 100 uM [9]: 38.3%

H-EMNYIFYPR-OH [compound 364]
Free Fatty Acid Levels in 3T3-L1 Adipocytes Expressed as a Percent of Isoproterenol Control: Percent of Control Value (3T3-L1 Adipocytes [5]): 87.2%
Decrease from Baseline in Body Weight (%) [3, 10]: −6.6 (1.6) %
Decrease from Baseline in Fat Mass (g) [3, 10]: −3.7 (1.2) g

H-MRWQEMGYIFYPRK-OH [compound 46]
Free Fatty Acid Levels in Human Primary Adipocytes Expressed as a Percent of Isoproterenol Control: Percent of Control Value (Human Primary Adipocytes [6]): 71.6%
Free Fatty Acid Levels in 3T3-L1 Adipocytes Expressed as a Percent of Forskolin Control: Percent of Control Value (3T3-L1 Adipocytes [7]): 66.8%
Free Fatty Acid Levels in 3T3-L1 Adipocytes Expressed as a Percent of Isoproterenol Control: Percent of Control Value (3T3-L1 Adipocytes [2]): 43.1%
Free Fatty Acid Levels in Human Primary Adipocytes Expressed as a Percent of Forskolin Control: Percent of Control Value (Human Primary Adipocytes [8]): 73.9%
% Remaining at Each Time Point: 0 min [9]: 100%
remaining at 0.25 h, 100 uM [9]: 28.1%
remaining at 0.5 h, 100 uM [9]: 26.4%
remaining at 1 h, 100 uM [9]: 31.4%
remaining at 2 h, 100 uM [9]: 12.4%
remaining at 3 h, 100 uM [9]: 12.6%
